From ChEMBL document CHEMBL1201862, “PubChem BioAssay data set” (2004)
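How tested: cells in 96-well plates exposed to compound for 48 hours at five concentrations. Here, GI50 denotes the concentration required for 50% inhibition of growth.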 Active and inactive are the calls of the source. Cut-off read from the data, not from the text of the source: active = GI50 up to about 1.1 µM and inactive = higher.

Legend:
Experiment in all cases: NCI tumour cell line growth inhibition, 48 h
786-0 = test system: 786-0
A498 = test system: A498
A549 = test system: A549
ACHN = test system: ACHN
CAKI-1 = test system: CAKI-1
CCRF-CEM = test system: CCRF-CEM
COLO 205 = test system: COLO 205
DLD-1 = test system: DLD-1
DMS-114 = test system: DMS-114
DMS-273 = test system: DMS-273
EKVX = test system: EKVX
HCC 2998 = test system: HCC 2998
HCT-116 = test system: HCT-116
HL-60 = test system: HL-60
HOP-18 = test system: HOP-18
HOP-62 = test system: HOP-62
HT-29 = test system: HT-29
IGROV-1 = test system: IGROV-1
K562 = test system: K562
KM-20L2 = test system: KM-20L2
KM12 = test system: KM12
LOX IMVI = test system: LOX IMVI
LXFL 529 = test system: LXFL 529
M14 = test system: M14
M19-MEL = test system: M19-MEL
MOLT-4 = test system: MOLT-4
Malme-3M = test system: Malme-3M
NCI-H226 = test system: NCI-H226
NCI-H23 = test system: NCI-H23
NCI-H460 = test system: NCI-H460
NCI-H522 = test system: NCI-H522
OVCAR-4 = test system: OVCAR-4
OVCAR-5 = test system: OVCAR-5
OVCAR-8 = test system: OVCAR-8
RPMI-8226 = test system: RPMI-8226
SF-268 = test system: SF-268
SF-295 = test system: SF-295
SF-539 = test system: SF-539
SK-MEL-5 = test system: SK-MEL-5
SK-OV-3 = test system: SK-OV-3
SN12C = test system: SN12C
SNB-19 = test system: SNB-19
SNB-75 = test system: SNB-75
SNB-78 = test system: SNB-78
SR = test system: SR
SW-620 = test system: SW-620
TK-10 = test system: TK-10
U-251 = test system: U-251
UACC-257 = test system: UACC-257
UACC-62 = test system: UACC-62
UO-31 = test system: UO-31
XF498 = test system: XF498

Measured: GI50

CCCCOC(=O)CNC(=O)OCCCCC#CC#CCCCCOC(=O)NCC(=O)OCCCC
inactive: 786-0 > 100 µM | A498 > 100 µM | A549 > 100 µM | ACHN > 100 µM | CAKI-1 > 100 µM | CCRF-CEM > 100 µM | COLO 205 > 100 µM | DLD-1 > 100 µM | DMS-114 > 100 µM | DMS-273 > 100 µM | EKVX > 100 µM | HCC 2998 > 100 µM | HCT-116 > 100 µM | HL-60 > 100 µM | HOP-18 69.8 µM | HOP-62 > 100 µM | HT-29 > 100 µM | IGROV-1 > 100 µM | K562 > 100 µM | KM-20L2 > 100 µM | KM12 > 100 µM | LOX IMVI > 100 µM | LXFL 529 > 100 µM | M14 > 100 µM | M19-MEL > 100 µM | MOLT-4 > 100 µM | Malme-3M > 100 µM | NCI-H226 > 100 µM | NCI-H23 > 100 µM | NCI-H460 > 100 µM | NCI-H522 76.7 µM | OVCAR-4 > 100 µM | OVCAR-5 > 100 µM | OVCAR-8 > 100 µM | RPMI-8226 > 100 µM | SF-268 > 100 µM | SF-295 > 100 µM | SF-539 > 100 µM | SK-MEL-5 > 100 µM | SK-OV-3 > 100 µM | SN12C > 100 µM | SNB-19 > 100 µM | SNB-75 > 100 µM | SNB-78 > 100 µM | SR > 100 µM | SW-620 > 100 µM | TK-10 > 100 µM | U-251 > 100 µM | UACC-257 > 100 µM | UACC-62 > 100 µM | UO-31 > 100 µM | XF498 > 100 µM
